Data set [1] deals with Mycobacterium tuberculosis. Nature of the data set: Antimycobacterial activity against Mycobacterium tuberculosis H37Rv ATCC 27294 by microplate alamar blue assay. The format is functional.
Data set [2] in a line: Cytotoxicity against human HeLa cells assessed as reduction in cell viability after 72 hrs by CellTiter-Blue1 assay. The format is cell-based. On the technique in general: Alamar Blue is a resazurin reagent that responds to reducing activity.
Data set [3] in a line: Antiproliferative activity against human K562 cells after 72 hrs by CellTiter-Blue1 assay. It counts as cell-based.
In data set [4] the test system is Mycobacterium tuberculosis. Nature of the data set: Antimycobacterial activity against Mycobacterium tuberculosis H37Rv after 7 days by BacTiter-Glo microbial cell viability assay. The following applies: Mycobacterium tuberculosis, H37Rv, 168 h; read-out: MIC. The format is functional.
Data set [5] relates to Sporobolomyces salmonicolor. Nature of the data set: Antifungal activity against Sporobolomyces salmonicolor 549 incubated overnight at 30 degC measured after 24 hrs by agar diffusion method. It counts as functional, organism-based. In general terms: Agar diffusion results depend on both activity and mobility in agar.
Another data set deals with Bacillus spizizenii. Nature of the data set: Antibacterial activity against Bacillus subtilis ATCC 6633 incubated overnight at 37 degC measured after 24 hrs by agar diffusion method. It counts as functional, organism-based.
Data set [6] deals with Mycolicibacterium smegmatis. Nature of the data set: Antimycobacterial activity against Mycobacterium smegmatis SG987 incubated overnight at 37 degC measured after 24 hrs by agar diffusion method. The format is functional.
A further data set concerns Mycolicibacterium vaccae. Nature of the data set: Antimycobacterial activity against Mycobacterium vaccae IMET 10670 incubated overnight at 37 degC measured after 24 hrs by agar diffusion method. The format is functional.
Data set [7] is described as follows: Antiproliferative activity against HUVEC after 72 hrs by CellTiter-Blue1 assay. The following applies: human. The format is cell-based.
A further data set deals with Escherichia coli. Nature of the data set: Antibacterial activity against Escherichia coli SG458 incubated overnight at 37 degC measured after 24 hrs by agar diffusion method. The format is functional, organism-based.
In data set [8] the target is T1, Serine/threonine-protein kinase PknB (Mycobacterium tuberculosis) (UniProt P9WI81).
T1 sequence (whole entry): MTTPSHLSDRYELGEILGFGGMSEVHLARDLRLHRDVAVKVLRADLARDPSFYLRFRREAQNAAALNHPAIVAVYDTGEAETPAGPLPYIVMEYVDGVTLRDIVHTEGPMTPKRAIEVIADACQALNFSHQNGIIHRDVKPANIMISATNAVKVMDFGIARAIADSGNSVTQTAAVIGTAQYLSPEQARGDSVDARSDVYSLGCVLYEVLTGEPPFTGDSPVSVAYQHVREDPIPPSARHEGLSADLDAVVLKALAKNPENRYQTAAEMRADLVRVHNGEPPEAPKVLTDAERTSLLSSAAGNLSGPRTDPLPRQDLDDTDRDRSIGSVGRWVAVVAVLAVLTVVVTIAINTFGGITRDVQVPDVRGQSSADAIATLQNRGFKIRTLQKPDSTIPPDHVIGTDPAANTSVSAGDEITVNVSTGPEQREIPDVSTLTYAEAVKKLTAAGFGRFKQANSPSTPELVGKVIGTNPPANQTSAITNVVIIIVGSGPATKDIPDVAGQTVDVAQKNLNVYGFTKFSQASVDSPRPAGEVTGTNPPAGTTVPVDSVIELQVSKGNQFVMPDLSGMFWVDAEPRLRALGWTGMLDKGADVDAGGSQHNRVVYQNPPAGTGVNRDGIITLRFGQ
Nature of the data set: Inhibition of Mycobacterium tuberculosis GST-tagged PknB expressed in Escherichia coli assessed as reduction in PknB autophosphorylation at 4.8 uM preincubated for 30 mins followed by [gamma32P]ATP addition measured after 30 mins by scintillation counting method relative to control.

Data set [9] has as its system Mycolicibacterium smegmatis. Nature of the data set: Antimycobacterial activity against Mycobacterium smegmatis SG987 after 48 hrs by resazurin microtiter assay. It counts as functional. Conditions: Mycolicibacterium smegmatis, SG987, 48 h; read-out: MIC.
The subject of the next data set is Mycolicibacterium aurum. Nature of the data set: Antimycobacterial activity against Mycobacterium aurum SB66 incubated overnight at 37 degC measured after 24 hrs by agar diffusion method. The format is functional.

In brackets after ≈: the same amount, converted by molar mass. Activity calls are given as the source filed them. The rule behind the calls is not given here.

The term MIC denotes the least concentration at which growth counts as inhibited. The term CC50 denotes the concentration giving 50% cytotoxicity. As a reminder, the GI50 is the concentration at which growth is held to half of that of the control. By inhibition is commonly meant the relative decrease from the control value, in per cent.

`COC(=O)/C=C/C(=O)c1ccc(OC)cc1` gave an MIC in data set [1] of 1.14 µM (≈ 0.251 µg/mL).

In the case of `C[C@H]1OC(=O)CCC(Cc2ccccc2)NC(=O)[C@@H](NC(=O)c2ncccc2O)[C@@H](C)OC1=O` (stereo partly drawn), the CC50 at 72 h in data set [2] was > 5 µg/mL. The GI50 at 72 h in data set [3] and in [7] was > 5 µg/mL throughout. In addition, the figures for the MIC in data set [4] and in [9] were 8 µM (≈ 3.76 µg/mL) and 13.7 µM (≈ 6.43 µg/mL), respectively. In addition, the outcome (in data set [5]; in the data set on Bacillus spizizenii; in the data set on Escherichia coli) was inactive. The figures for the “diameter of the inhibition zone (DIZ)” value (in data set [6]; in the data set on Mycolicibacterium vaccae; in the data set with Mycolicibacterium aurum) were 17 mm, 21 - 29 mm and 0 mm, respectively. Also, the inhibition in [8] stood at 35%.
